Calls of active or inactive are those of the source. The rule behind the calls is not given here.
How the values were obtained:
PC-3 [1] = test: Downregulation of Beclin-1 expression in human PC-3 cells at IC50 incubated for 3 days by Western blot analysis; format: functional, cell-based; settings: time 3.0 day
[2] = Cytotoxicity against human skin fibroblast cells incubated for 72 hrs by MTT assay; format: toxicity, cell-based
PC-3 [3] = test: Cytotoxicity against human PC-3 cells incubated for 72 hrs by MTT assay; format: functional, cell-based; settings: PC-3, 72 h
PC-3 [4] = test: Downregulation of ATG14 expression in human PC-3 cells at IC50 incubated for 3 days by Western blot analysis; format: functional, cell-based; settings: time 3.0 day
PC-3 [5] = test: Upregulation of Cas3 expression in human PC-3 cells at IC50 incubated for 3 days by Western blot analysis; format: functional, cell-based; settings: time 3.0 day
MCF7 = test: Cytotoxicity against human MCF7 cells incubated for 72 hrs by MTT assay; format: functional, cell-based; settings: MCF7, 72 h
PC-3 [6] = test: Induction of mitochondrial transmembrane potential dissipation in human PC-3 cells at 30 uM incubated for 1 hr by TMRE staining based flow cytometry; format: functional, cell-based
[7] = Selectivity index, ratio of IC50 for human skin fibroblast to IC50 for human PC-3 cells; format: toxicity; settings: human skin fibroblasts and PC-3 cells, read-out: Ratio IC50
Caco-2 = test: Cytotoxicity against human Caco-2 cells incubated for 72 hrs by MTT assay; format: functional, cell-based; settings: Caco-2, 72 h
PC-3 [8] = test: Downregulation of LC-3 expression in human PC-3 cells at IC50 incubated for 3 days by Western blot analysis; format: functional, cell-based; settings: time 3.0 day
[9] = Selectivity index, ratio of IC50 for human skin fibroblast to IC50 for human Caco-2 cells
PC-3 [10] = test: […] of ROS production in human PC-3 cells at 30 uM incubated for 1 hr by MitoSOX staining based flow cytometry; format: functional, cell-based
PC-3 [11] = test: Downregulation of Akt expression in human PC-3 cells at IC50 incubated for 3 days by Western blot analysis; format: functional, cell-based; settings: time 3.0 day
[12] = Drug accumulation in human PC-3 cells at 1 uM incubated for 2 hrs by LC-MS/MS analysis; format: ADME, cell-based; settings: pc-3, 2 h

SMILES	Activity (PC-3 [1])	IC50 at 72 h [2]	IC50 (PC-3 [3])	Activity (PC-3 [4])	Activity (PC-3 [5])	IC50 (MCF7)	Activity (PC-3 [6])	selectivity ratio [7]	IC50 (Caco-2)	Activity (PC-3 [8])	Ratio IC50 [9]	Activity (PC-3 [10])	Activity (PC-3 [11])	Drug uptake [12]
C=C(C)[C@@H]1CC[C@]2(C(=O)OCCCCCC[P+](c3ccccc3)(c3ccccc3)c3ccccc3)CC[C@]3(C)[C@H](CC[C@@H]4[C@@]5(C)CC[C@H](O[C@@H]6O[C@@H](C)[C@H](O)[C@@H](O)[C@H]6O)C(C)(C)[C@@H]5CC[C@]43C)[C@@H]12.[Br-]	Active	10800 nM	1200 nM	Active	Active	1100 nM	Active	9.7	2000 nM	Active	5.9	Active	Active	3.5 µM
C=C(C)[C@@H]1CC[C@]2(C(=O)OCCCCCC[P+](c3ccccc3)(c3ccccc3)c3ccccc3)CC[C@]3(C)[C@H](CC[C@@H]4[C@@]5(C)CC[C@H](O[C@H]6O[C@H](CO)[C@@H](O)[C@H](O)[C@@H]6O)C(C)(C)[C@@H]5CC[C@]43C)[C@@H]12.[Br-]		2900 nM	2300 nM			2000 nM	Active	2.5	2400 nM		2.4	Active		3.5 µM
C=C(C)[C@@H]1CC[C@]2(C(=O)O)CC[C@]3(C)[C@H](CC[C@@H]4[C@@]5(C)CC[C@H](O)C(C)(C)[C@@H]5CC[C@]43C)[C@@H]12 [BETULINIC ACID]														0.035 µM
C=C(C)[C@@H]1CC[C@]2(C(=O)OCCCCCC[P+](c3ccccc3)(c3ccccc3)c3ccccc3)CC[C@]3(C)[C@H](CC[C@@H]4[C@@]5(C)CC[C@H](O)C(C)(C)[C@@H]5CC[C@]43C)[C@@H]12.[Br-]		8500 nM	800 nM			800 nM		8.3	1400 nM		4.7			3.5 µM
C=C(C)[C@@H]1CC[C@]2(C(=O)OCCCCCC[P+](c3ccccc3)(c3ccccc3)c3ccccc3)CC[C@]3(C)[C@H](CC[C@@H]4[C@@]5(C)CC[C@H](O[C@@H]6O[C@H](CO)[C@@H](O)[C@H](O)[C@H]6O)C(C)(C)[C@@H]5CC[C@]43C)[C@@H]12.[Br-]	Active	16500 nM	400 nM	Active	Active	700 nM	Active	32	1100 nM	Active	10.2	Active	Active	172.9 µM
